Measurements: the CombiSolv-Exp solvation set (Vermeire and Green 2021)

Experiment: solvent given as SMILES

CC(C)C#N
Settings	solvation free energy, 298 K [kcal/mol]
in CCCCCCCCCCCCCCCC	-3.08
in CCCCCCCCO	-3.92
in O	-3.31
in [2H]O[2H]	-3.29

O=[N+]([O-])c1ccc(O)c([N+](=O)[O-])c1
Settings	solvation free energy, 298 K [kcal/mol]
in CCCCCC	-8.09
in CCCCCCC	-8.08
in CCCCCCCC	-8.05
in O	-7.61

Cc1cc(C)cc(O)c1
Settings	solvation free energy, 298 K [kcal/mol]
in CC(C)CC(C)(C)C	-6.48
in CCCCCC	-6.77
in CCCCCCC	-6.71
in CCCCCCCC	-6.69
in O	-6.28

Clc1ccc(-c2cc(Cl)ccc2Cl)cc1
Settings	solvation free energy, 298 K [kcal/mol]
in CCCCCCCCO	-10.8

COCCOC(=O)c1ccccc1C(=O)OCCOC
Settings	solvation free energy, 298 K [kcal/mol]
in O	-13.5

CCCCOC(=O)c1ccccc1C(=O)OCc1ccccc1
Settings	solvation free energy, 298 K [kcal/mol]
in O	-9.55

Cc1ccccc1N(O)C(=O)c1ccc(Cl)cc1
Settings	solvation free energy, 298 K [kcal/mol]
in O	-10.8

ClCc1ccccc1
Settings	solvation free energy, 298 K [kcal/mol]
in C1COCCO1	-7.23
in CC(C)(C)O	-6.07
in CC(C)O	-5.99
in CCCCO	-6.08
in CCCO	-6.06
in CCO	-6.22
in CO	-6.37
in O	-1.88

COC(=O)CCl
Settings	solvation free energy, 298 K [kcal/mol]
in O	-4

Cc1ccc(C)cc1
Settings	solvation free energy, 298 K [kcal/mol]
in CC#N	-5.16
in CC(C)CC(C)(C)C	-5.39
in CC(C)CO	-4.94
in CC(O)CO	-4.14
in CCCCCCC	-5.45
in CCCCCCCCCCCCCCCC	-5.27
in CCCCCCCCO	-5.17
in CCCCOC(C)=O	-6.1
in CCO	-5.09
in CNC=O	-4.8
in COCCO	-5.06
in ClC(Cl)(Cl)Cl	-5.73
in ClCCCl	-5.96
in NC=O	-3.27
in NCCO	-3.84
in O	-0.75
in O=CN1CCOCC1	-4.98
in OCCO	-3.4
in OCCOCCO	-4.23
in OCCOCCOCCO	-4.37

CCCO
Settings	solvation free energy, 298 K [kcal/mol]
in Brc1ccccc1	-3.66
in C1CCOC1	-5.22
in C1COCCO1	-4.52
in C=CCCCCCCCCCCCCCC	-2.96
in CC#N	-4.84
in CC(C)(C)O	-5.55
in CC(C)CC(C)(C)C	-3
in CC(C)CCCC(C)CCCC(C)CCCCC(C)CCCC(C)CCCC(C)C	-2.6
in CC(C)CO	-5.44
in CC(C)O	-5.53
in CC(C)OC(C)C	-4.39
in CCC1CO1	-5.09
in CCC(C)=O	-4.97
in CCCC(C)O	-5.34
in CCCCC(CC)COC(=O)CCCCC(=O)OCC(CC)CCCC	-4.07
in CCCCCC	-2.99
in CCCCCCC	-2.97
in CCCCCCCC	-2.91
in CCCCCCCCC=CCCCCCCCC(=O)OCC(COC(=O)CCCCCCCC=CCCCCCCCC)OC(=O)CCCCCCCC=CCCCCCCCC	-3.96
in CCCCCCCCCC	-2.76
in CCCCCCCCCCCCCCCC	-2.7
in CCCCCCCCCCO	-4.8
in CCCCCCCCO	-5.02
in CCCCCO	-5.43
in CCCCO	-5.22
in CCCCOC(C)=O	-4.65
in CCCOCCC	-4.2
in CCO	-5.69
in CCOC(=O)c1ccccc1C(=O)OCC	-4.09
in CCOCCO	-5.33
in CCOP(=O)(OCC)OCC	-5.39
in CN1CCCC1=O	-5.69
in CN1CCN(C)C1=O	-5.51
in CN(C)C=O	-5.57
in CO	-5.92
in COC(C)(C)C	-4.6
in COC(C)=O	-4.88
in Cc1ccc(C)cc1	-3.73
in Cc1cccc(C)c1	-3.72
in ClC(Cl)(Cl)Cl	-3.53
in Clc1ccccc1	-3.83
in FC(F)(F)C(F)(F)C(F)(F)C(F)(F)C(F)(F)C(F)(F)C(F)(F)F	-1.69
in FC(F)(F)C(F)(F)C(F)(F)C(F)(F)C(F)(F)C(F)(F)F	-1.74
in NC=O	-4.84
in O	-4.88
in O=CN1CCOCC1	-5.02
in OCC(O)CO	-4.37
in OCCOCCO	-5.2
in [2H]O[2H]	-4.95
in c1ccccc1	-3.97

CCCC(C)C
Settings	solvation free energy, 298 K [kcal/mol]
in Brc1ccccc1	-3.41
in C1CCCCC1	-3.86
in C1CCOC1	-3.7
in C1COCCO1	-3.03
in C=CCCCC	-3.84
in C=CCCCCCC	-3.73
in C=CCCCCCCCC	-3.64
in C=CCCCCCCCCCCCCCC	-3.33
in CC1COC(=O)O1	-1.98
in CC#N	-2.5
in CC(=O)N(C)C	-2.65
in CC(=O)O	-2.72
in CC(=O)c1ccccc1	-2.84
in CC(C)=O	-3.08
in CC(C)CC(C)(C)C	-3.72
in CC(C)CCCC(C)CCCC(C)CCCCC(C)CCCC(C)CCCC(C)C	-3.28
in CC(C)CCO	-3.23
in CC(C)O	-3.02
in CC(C)OC(C)C	-3.78
in CCBr	-3.88
in CCC#N	-2.84
in CCC(C)=O	-3.27
in CCCC#N	-3.05
in CCCC(=O)OCC	-3.46
in CCCC(C)=O	-3.34
in CCCCC	-3.93
in CCCCCC	-3.87
in CCCCCC(C)=O	-3.35
in CCCCCCC	-3.78
in CCCCCCCC	-3.71
in CCCCCCCCC	-3.67
in CCCCCCCCCC	-3.63
in CCCCCCCCCCCC	-3.52
in CCCCCCCCCCCCCCCC	-3.45
in CCCCCCCCCOC(=O)c1ccccc1C(=O)OCCCCCCCCC	-3.02
in CCCCCCCCO	-3.18
in CCCCCCOC(C)=O	-3.42
in CCCCCO	-3.3
in CCCCO	-3.12
in CCCCOC(C)=O	-3.4
in CCCCOCCCC	-3.7
in CCCO	-3.01
in CCN(CC)CC	-3.81
in CCO	-2.97
in CCOC(C)=O	-3.29
in CCOCC	-3.78
in CCOCCOCCOCC	-3.21
in CCOc1ccccc1	-3.26
in CN1CCCC1=O	-2.55
in CN1CCCCC1=O	-2.58
in CN(C)C=O	-2.52
in CN(C)P(=O)(N(C)C)N(C)C	-2.88
in CNC=O	-2.24
in CO	-2.68
in COC(C)(C)C	-3.77
in COC(C)=O	-3.14
in COCCO	-2.53
in COc1ccccc1	-3.2
in CS(C)=O	-1.78
in Cc1ccc(C)cc1	-3.64
in Cc1ccccc1	-3.65
in Cc1ccccn1	-3.28
in ClC(Cl)(Cl)Cl	-3.85
in ClC(Cl)Cl	-3.72
in ClCCCl	-3.24
in ClCCl	-3.54
in Clc1ccccc1	-3.62
in FC(F)(F)C(F)(F)C(F)(F)C(F)(F)C(F)(F)C(F)(F)C(F)(F)C(F)(F)F	-2.43
in FC(F)(F)C(F)(F)C(F)(F)C(F)(F)C(F)(F)C(F)(F)F	-2.53
in Fc1ccccc1	-3.63
in ICI	-1.94
in N#Cc1ccccc1	-2.91
in Nc1ccccc1	-2.28
in O	2.51
in O=C1CCCCC1	-3.16
in O=C1CCCO1	-2.1
in OCc1ccccc1	-2.47
in S=C=S	-3.82
in c1ccccc1	-3.61
in c1ccncc1	-3.06

ClC(Br)Br
Settings	solvation free energy, 298 K [kcal/mol]
in CCCCCCCCO	-4.9

Brc1c(Br)c(Br)c(Br)c(Br)c1Br
Settings	solvation free energy, 298 K [kcal/mol]
in CCCCCCCCC=CCCCCCCCC(=O)OCC(COC(=O)CCCCCCCC=CCCCCCCCC)OC(=O)CCCCCCCC=CCCCCCCCC	-12.7
in O	-3.08

CCCOC(=O)c1ccccc1O
Settings	solvation free energy, 298 K [kcal/mol]
in O	-3.66

Nc1ccc([N+](=O)[O-])cc1Cl
Settings	solvation free energy, 298 K [kcal/mol]
in O	-8.74

CCCCc1ccccc1
Settings	solvation free energy, 298 K [kcal/mol]
in C1CCOC1	-7.33
in CC#N	-6.1
in CC(C)O	-5.98
in CCC(C)=O	-6.73
in CCCCCCC	-6.58
in CCCCCCCCCCCCCCCC	-6.44
in CCO	-5.72
in CO	-5.81
in O	-0.37
in O=Cc1ccco1	-5.99
in OCCOCCO	-4.81

ClC(Cl)(Cl)Cl
Settings	solvation free energy, 298 K [kcal/mol]
in Brc1cccc2ccccc12	-3.92
in C1CCCC1	-4.4
in C1CCOC1	-4.65
in C1COCCO1	-4.32
in C=CCCCCCCCCCCCCCC	-3.81
in CC#N	-3.66
in CC(=O)CC(C)C	-4.22
in CC(=O)N(C)C	-4.52
in CC(=O)OCc1ccccc1	-3.97
in CC(C)(C)O	-3.74
in CC(C)=O	-4.15
in CC(C)CCCC(C)CCCC(C)CCCCC(C)CCCC(C)CCCC(C)C	-3.74
in CCC(C)=O	-4.15
in CCCCCC	-4.14
in CCCCCCC	-4.09
in CCCCCCCC	-3.98
in CCCCCCCCC=CCCCCCCCC(=O)OCC(COC(=O)CCCCCCCC=CCCCCCCCC)OC(=O)CCCCCCCC=CCCCCCCCC	-4
in CCCCCCCCCCCCCC	-3.8
in CCCCCCCCCCCCCCCC	-3.85
in CCCCCCCCCOC(=O)c1ccccc1C(=O)OCCCCCCCCC	-3.85
in CCCCCCCCN(CCCCCCCC)CCCCCCCC	-3.79
in CCCCCCCCO	-3.79
in CCCCCCO	-3.84
in CCCCCN(CCCCC)CCCCC	-3.96
in CCCCCl	-4.28
in CCCCN(C=O)CCCC	-4.11
in CCCCN(CCCC)CCCC	-3.84
in CCCCO	-3.87
in CCCCOC	-4.39
in CCCCOC(C)=O	-4.26
in CCCCOCC	-4.29
in CCCCOCCCC	-4.16
in CCCO	-3.75
in CCCOCCC	-4.25
in CCO	-3.74
in CCOC(=O)c1ccccc1C(=O)OCC	-3.77
in CCOC(C)=O	-4.23
in CCOCC	-4.41
in CI	-4.51
in CN1CCCC1=O	-4.16
in CNC(C)=O	-3.9
in CO	-3.66
in CS(C)=O	-3.66
in CSC	-4.63
in Cc1ccc(C)cc1	-4.35
in Cc1cccc(C)c1	-4.29
in Cc1ccccc1C	-4.34
in ClC(Cl)Cl	-4.43
in ClCCCl	-4.15
in NC=O	-2.16
in O	0.07
in O=C1CCCCC1	-4.32
in S=C=S	-4.52
in [2H]O[2H]	-0.62
in c1ccc2ncccc2c1	-4.07
